# Measured values: patent US20110230430A1, “SAPONIN EXTRACT FROM SAPONARIA SPP. AND USES THEREOF” (NATIONAL RESEARCH COUNCIL OF CANADA, priority 2008, published 2011)
# Tests used:
# Type in all cases: cell-based, human
# [1] = system: MDA-MB-231 cells; assay: Dual Sensor: MitoCasp Assay in MDA-MB-231 breast cancer cells
# Description: (§1) Techniques to assay enzymatic and signaling processes involved in apoptosis have been developed as standard protocols. One example of an early step in apoptosis, is the release of cytochrome C from mitochondria and the activation of caspase-3. Induction of the caspases (a series of cytosolic proteases) is one of the most consistently observed features of apoptosis. Caspases are a family of proteolytic enzymes that transmit the apoptotic signal using a proteolytic cascade. […] Caspases 3 and 7 are effector caspases, central to the caspase cascade pathways. In particular, caspase-3 plays a central role in the process. When caspases are activated, they cleave target proteins; one of the most important of these is poly-(ADP-ribose) polymerase (PARP), which is a protein located in the nucleus. Therefore, assays detecting release of cytochrome C, detecting caspase-3 activity and detecting PARP degradation are effective determinants of apoptosis. The loss of mitochondrial membrane potential is known to occur during apoptosis. To analyze mitochondrial membrane potential, a cationic dye may be used which accumulates in the mitochondria of healthy cells. Collapse of the mitochondrial membrane potential during apoptosis prevents the dye from accumulating in the mitochondria resulting in a decrease in fluorescent intensity that can be detected with flow cytometry. Dual Sensor: MitoCasp™ (Cell Technology) used herein in the Examples is an assay that measures caspase 3/7 activity and cells with decreased mitochondrial membrane potential. In this assay, caspase 3/7 activity is detected using a cell permeable carboxyfluorescein labeled caspase inhibitor, which binds covalently to active caspases 3 and 7. Cells that contain bound inhibitor are detected by an increase in fluorescence when samples are analyzed by flow cytometry.
# (§2) Following centrifugation at 500×g for 5 min, cell pellets were resuspended in PBS at 3.3×10^6 cells/mL. 300 μL cell suspension was mixed with 10 μL each of 30X Mitochondria Membrane Potential Dye and 30X Caspase 3/7 detection reagent. Following incubation for 60 min under normal growth conditions, cells were washed twice with 1× wash buffer and resuspended in 0.5 mL 1× wash buffer. Samples were analyzed by flow cytometry measuring the fluorescence emissions from 515 nm to 530 nm for caspase detection, and 574 nm to 600 nm for mitochondrial membrane potential detection.
# The MDA-MB-231 cell line (ATCC #HTB-26) was derived from the pleural effusion of a patient with a breast adenocarcinoma (Cailleau et al., 1974). The cells were maintained in RPMI 1640 (Gibco) supplemented with 10% fetal bovine serum (Camera), 100 U/mL penicillin, 100 μg/mL streptomycin and 0.25 μg/mL amphotericin B. Cultures were maintained in medium at 37° C. with 5% CO2 and 100% relative humidity. […]
# [2] = system: CRL-2522 cells; assay: Vybrant Apoptosis Assay Kit #2 in CRL-2522 cells
# Description: (§3) Another apoptotic assay is the Annexin-V detection of extracellular phosphatidlyserine (PS). Normally, phosphatidylserine is localized on the inner membrane of the plasmalemma. However, during the early stages of apoptosis, externalization of PS takes place. Annexin-V is a calcium binding protein which binds to PS and can be observed with annexin-V-FITC staining by flow cytometry (Martin, et al., 1995). Alexa Fluor® 488-labeled Annexin V, which has a high affinity for PS, is used to detect apoptotic cells by binding to PS on the outer surface of the cell. Propidium iodide staining is used concurrently to detect dead cells. When cells are analyzed by flow cytometry apoptotic cells show Annexin V staining, late apoptotic cells show PI and Annexin V staining, and dead cells show only PI staining. The Vybrant® Apoptosis Assay Kit #2 (Molecular Probes™) used herein in the Examples is an assay that measures Annexin-V positive cells.
# CRL-2522 cells, acquired from ATCC, (American Type Culture Collection) are normal fibroblast cells that originated from human foreskin. CRL-2522 cells were maintained in RPMI 1640 medium (Gibco) supplemented with 10% fetal bovine serum (Cansera), 100 U/mL penicillin, 100 μg/mL streptomycin and 0.25 μg/mL amphotericin B. Cultures were maintained in medium at 37° C. with 5% CO2 and 100% relative humidity.
# CRL-2522 cells were treated with PC1448 and assayed for apoptosis as described above for PC-3 cells.
# [3] = system: PC-3 cells; assay: Vybrant Apoptosis Assay Kit #2 in PC-3 cells
# Description: as §3
# PC-3 cells (ATCC #CRL-1435) were derived from a prostate adenocarcinoma (Kaighn et al., 1979). They were maintained in RPMI 1640 medium (Gibco) supplemented with 10% fetal bovine serum (Cansera), 100 U/mL penicillin, and 100 μg/mL streptomycin and 0.25 μg/mL amphotericin B. Cultures were maintained in medium at 37° C. with 5% CO2 and 100% relative humidity.
# PC-3 cells were seeded in tissue culture flasks with regular growth medium and maintained under normal conditions. […] Following incubation under normal growth conditions for the specified time, cells were washed once with cold phosphate-buffered saline (PBS) (137 mM NaCl, 2.7 mM KCl, 4.3 mM Na2HPO4.7H2O, 1.4 mM KH2PO4) and harvested as previously described. Assays were carried out according to instructions given in kits. All Flow Cytometry was performed using a Coulter Epics XL (Beckman).
# [4] = system: CRL-2522 cells; assay: Dual Sensor: MitoCasp Assay in CRL-2522 normal fibroblast cells
# Description: as §1, §2
# CRL-2522 cells, acquired from ATCC, (American Type Culture Collection) are normal fibroblast cells that originated from human foreskin. CRL-2522 cells were maintained in RPMI 1640 medium (Gibco) supplemented with 10% fetal bovine serum (Cansera), 100 U/mL penicillin, 100 μg/mL streptomycin and 0.25 μg/mL amphotericin B. Cultures were maintained in medium at 37° C. with 5% CO2 and 100% relative humidity. […]
# [5] = 5.0 μM saponin, 36 hours (comparison of saponins)
# [6] = CRL-2522 cells, 1.25 μM PC1464, 36 hr
# [7] = CRL-2522 cells, 2.5 μM PC1464, 36 hr
# [8] = CRL-2522 cells, 5.0 μM PC1464, 36 hr
# [9] = CRL-2522 cells, 7 μM PC1464, 10 hr
# [10] = CRL-2522 cells, 7 μM PC1464, 20 hr
# [11] = CRL-2522 cells, 7 μM PC1464, 30 hr
# [12] = CRL-2522 cells, 10.0 μM PC1464, 36 hr
substance,measurement,setting,value
Segetoside I [PC1464],Cells with caspase 3/7 activity,"[1]; 1.25 μM PC1464, 35 hr",16.7%
same,Cells with decreased mitochondrial membrane potential,"[1]; 1.25 μM PC1464, 35 hr",15.6%
same,Cells with caspase 3/7 activity,"[1]; 2.5 μM PC1464, 35 hr",32.4%
same,Cells with decreased mitochondrial membrane potential,"[1]; 2.5 μM PC1464, 35 hr",21.2%
same,Cells with caspase 3/7 activity,"[1]; 3.5 μM PC1464, 12 hr",20.0%
same,Cells with decreased mitochondrial membrane potential,"[1]; 3.5 μM PC1464, 12 hr",19.9%
same,Cells with caspase 3/7 activity,"[1]; 3.5 μM PC1464, 24 hr",27.5%
same,Cells with decreased mitochondrial membrane potential,"[1]; 3.5 μM PC1464, 24 hr",51.5%
same,Increase in number of cells with caspase 3/7 activity,"[1]; 3.5 μM PC1464, 36 hours",two fold
same,Increase in number of cells with reduced mitochondrial membrane potential,"[1]; 3.5 μM PC1464, 36 hours",eight fold
same,Cells with caspase 3/7 activity,"[1]; 3.5 μM PC1464, 36 hr",29.1%
same,Cells with decreased mitochondrial membrane potential,"[1]; 3.5 μM PC1464, 36 hr",52.0%
same,Cells with caspase 3/7 activity,"[1]; 5.0 μM PC1464, 35 hr",53.0%
same,Cells with decreased mitochondrial membrane potential,"[1]; 5.0 μM PC1464, 35 hr",32.8%
same,Cells with caspase 3/7 activity,[1]; [5],39.9%
same,Cells with decreased mitochondrial membrane potential,[1]; [5],13.7%
same,Cells with caspase 3/7 activity,"[1]; 10.0 μM PC1464, 35 hr",55.7%
same,Cells with decreased mitochondrial membrane potential,"[1]; 10.0 μM PC1464, 35 hr",39.6%
same,Concentration of greatest effect on apoptosis,[1]; 35 hours,above 5 μM
same,Induction of apoptosis at concentrations as low as,[1]; 35 hours,2.5 µM
same,Effect on Annexin V positive cells (in words),"[2]; 7 μM PC1464, 10-30 hr",little effect
same,Annexin-V positive cells,"[2]; 7 μM PC1464, 10 hr",6.0%
same,Annexin-V positive cells,"[2]; 7 μM PC1464, 20 hr",8.4%
same,Annexin-V positive cells,"[2]; 7 μM PC1464, 30 hr",10.2%
same,Annexin-V positive cells,"[3]; 7 μM PC1464, 10 hr",21.0%
same,Annexin-V positive cells,"[3]; 7 μM PC1464, 20 hr",30.9%
same,Annexin-V positive cells,"[3]; 7 μM PC1464, 30 hr",44.7%
same,Increase in Annexin V positive cells vs untreated,"[3]; 7 μM or 14 μM PC1464, 30 hr",three to six fold
same,Annexin-V positive cells,"[3]; 14 μM PC1464, 10 hr",11.5%
same,Annexin-V positive cells,"[3]; 14 μM PC1464, 20 hr",28.9%
same,Annexin-V positive cells,"[3]; 14 μM PC1464, 30 hr",49.4%
same,Cells with caspase 3/7 activity,[4]; [6],1.7%
same,Cells with decreased mitochondrial membrane potential,[4]; [6],1.7%
same,Cells with caspase 3/7 activity,[4]; [7],3.2%
same,Cells with decreased mitochondrial membrane potential,[4]; [7],1.4%
same,Cells with caspase 3/7 activity,[4]; [8],14.4%
same,Cells with decreased mitochondrial membrane potential,[4]; [8],1.3%
same,Effect on apoptosis (in words),"[4]; CRL-2522 cells, 7 μM PC1464, 10-30 hr",minimal effect
same,Cells with caspase 3/7 activity,[4]; [9],3.2%
same,Cells with decreased mitochondrial membrane potential,[4]; [9],4.4%
same,Cells with caspase 3/7 activity,[4]; [10],11.7%
same,Cells with decreased mitochondrial membrane potential,[4]; [10],4.4%
same,Cells with caspase 3/7 activity,[4]; [11],16.9%
same,Cells with decreased mitochondrial membrane potential,[4]; [11],5.1%
same,Cells with caspase 3/7 activity,[4]; [12],19.9%
same,Cells with decreased mitochondrial membrane potential,[4]; [12],2.2%
same,Cells with Caspase 3/7 activity and decreased mitochondrial membrane potential vs untreated (in words),"[4]; CRL-2522 cells, PC1464 10.0-1.25 μM, 36 hours",slight increase
same,Apoptosis in non-cancerous cell line (summary in words),"[4]; fibroblast cell line CRL-2522, summary of the Examples",no or little apoptosis
